Source: PubChem BioAssay (NCI)
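Five concentrations, 48 hours, 96-well plates. TGI: total growth inhibition.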

Columns and labels:
Assay in all cases: DTP human tumour cell line panel, 48 h
HS 578T breast = test system: HS 578T breast
A549 NSCLC = test system: A549 NSCLC
SNB-75 CNS = test system: SNB-75 CNS
M14 melanoma = test system: M14 melanoma
LOX IMVI melanoma = test system: LOX IMVI melanoma
NCI-H522 lung = test system: NCI-H522 lung
MALME-3M melanoma = test system: MALME-3M melanoma
IGROV1 ovarian = test system: IGROV1 ovarian
HL-60(TB) leukemia = test system: HL-60(TB) leukemia
NCI/ADR-RES ovarian = test system: NCI/ADR-RES ovarian
A498 renal = test system: A498 renal
CCRF-CEM leukemia = test system: CCRF-CEM leukemia
ACHN renal = test system: ACHN renal
K-562 leukemia = test system: K-562 leukemia
NCI-H226 lung = test system: NCI-H226 lung
NCI-H460 lung = test system: NCI-H460 lung
T-47D breast = test system: T-47D breast
SK-MEL-5 melanoma = test system: SK-MEL-5 melanoma
CAKI-1 renal = test system: CAKI-1 renal
EKVX NSCLC = test system: EKVX NSCLC
OVCAR-3 ovarian = test system: OVCAR-3 ovarian
HOP-92 NSCLC = test system: HOP-92 NSCLC
OVCAR-4 ovarian = test system: OVCAR-4 ovarian
786-0 renal = test system: 786-0 renal
HOP-62 NSCLC = test system: HOP-62 NSCLC
DU-145 prostate = test system: DU-145 prostate
SW-620 colon = test system: SW-620 colon
SF-539 CNS = test system: SF-539 CNS
TK-10 renal = test system: TK-10 renal
RPMI-8226 leukemia = test system: RPMI-8226 leukemia
SNB-19 CNS = test system: SNB-19 CNS
NCI-H23 lung = test system: NCI-H23 lung
HCT-15 colon = test system: HCT-15 colon
MDA-MB-435 = test system: MDA-MB-435
BT-549 breast = test system: BT-549 breast
PC-3 prostate = test system: PC-3 prostate
SF-268 CNS = test system: SF-268 CNS
UACC-62 melanoma = test system: UACC-62 melanoma
HCT-116 colon = test system: HCT-116 colon
KM12 colon = test system: KM12 colon
SK-OV-3 ovarian = test system: SK-OV-3 ovarian
HCC-2998 colon = test system: HCC-2998 colon
UO-31 renal = test system: UO-31 renal
SN12C renal = test system: SN12C renal
COLO 205 colon = test system: COLO 205 colon
MOLT-4 leukemia = test system: MOLT-4 leukemia
MDA-MB-231 breast = test system: MDA-MB-231 breast
UACC-257 melanoma = test system: UACC-257 melanoma
MDA-N = test system: MDA-N
SK-MEL-2 melanoma = test system: SK-MEL-2 melanoma
SF-295 CNS = test system: SF-295 CNS
HT29 colon = test system: HT29 colon
SK-MEL-28 melanoma = test system: SK-MEL-28 melanoma
MCF7 breast = test system: MCF7 breast
OVCAR-8 ovarian = test system: OVCAR-8 ovarian
U251 CNS = test system: U251 CNS
OVCAR-5 ovarian = test system: OVCAR-5 ovarian
RXF 393 renal = test system: RXF 393 renal
SR leukemia = test system: SR leukemia

**Q.** For `c1ccc(CCCN2C3CCC2CN(CCOC(c2ccccc2)c2ccccc2)C3)cc1`, which TGI (HS 578T breast) is on record?
**A.** 33.7 µM

**Q.** And the TGI (A549 NSCLC)?
**A.** 27.2 µM

**Q.** What about the TGI (SNB-75 CNS) of the same molecule?
**A.** 20.8 µM

**Q.** What about the TGI (M14 melanoma) of the same molecule?
**A.** 17.3 µM

**Q.** And the TGI (LOX IMVI melanoma)?
**A.** 24.5 µM

**Q.** And the TGI (NCI-H522 lung)?
**A.** 23 µM

**Q.** What about the TGI (MALME-3M melanoma) of the same molecule?
**A.** 25.2 µM

**Q.** And the TGI (IGROV1 ovarian)?
**A.** 27 µM

**Q.** What about the TGI (HL-60(TB) leukemia) of the same molecule?
**A.** 23.1 µM

**Q.** And the TGI (NCI/ADR-RES ovarian)?
**A.** 21.3 µM

**Q.** What about the TGI (A498 renal) of the same molecule?
**A.** 21.8 µM

**Q.** What about the TGI (CCRF-CEM leukemia) of the same molecule?
**A.** 39.2 µM

**Q.** And the TGI (ACHN renal)?
**A.** 26.2 µM

**Q.** And the TGI (K-562 leukemia)?
**A.** 64 µM

**Q.** What about the TGI (NCI-H226 lung) of the same molecule?
**A.** 25.9 µM

**Q.** And the TGI (NCI-H460 lung)?
**A.** 25.8 µM

**Q.** And the TGI (T-47D breast)?
**A.** 13.9 µM

**Q.** And the TGI (SK-MEL-5 melanoma)?
**A.** 11.8 µM

**Q.** And the TGI (CAKI-1 renal)?
**A.** 25.7 µM

**Q.** What about the TGI (EKVX NSCLC) of the same molecule?
**A.** 19.9 µM

**Q.** What about the TGI (OVCAR-3 ovarian) of the same molecule?
**A.** 30.4 µM

**Q.** What about the TGI (HOP-92 NSCLC) of the same molecule?
**A.** 25.5 µM

**Q.** What about the TGI (OVCAR-4 ovarian) of the same molecule?
**A.** 28.4 µM

**Q.** And the TGI (786-0 renal)?
**A.** 21.6 µM

**Q.** What about the TGI (HOP-62 NSCLC) of the same molecule?
**A.** 31.4 µM

**Q.** And the TGI (DU-145 prostate)?
**A.** 32 µM

**Q.** And the TGI (SW-620 colon)?
**A.** 44.8 µM

**Q.** What about the TGI (SF-539 CNS) of the same molecule?
**A.** 22.4 µM

**Q.** And the TGI (TK-10 renal)?
**A.** 25.6 µM

**Q.** And the TGI (RPMI-8226 leukemia)?
**A.** 7.83 µM

**Q.** What about the TGI (SNB-19 CNS) of the same molecule?
**A.** 28.3 µM

**Q.** What about the TGI (NCI-H23 lung) of the same molecule?
**A.** 23.6 µM

**Q.** What about the TGI (HCT-15 colon) of the same molecule?
**A.** 18.1 µM

**Q.** And the TGI (MDA-MB-435)?
**A.** 29 µM

**Q.** And the TGI (BT-549 breast)?
**A.** 24.9 µM

**Q.** What about the TGI (PC-3 prostate) of the same molecule?
**A.** 19.4 µM

**Q.** And the TGI (SF-268 CNS)?
**A.** 29.2 µM

**Q.** And the TGI (UACC-62 melanoma)?
**A.** 25.5 µM

**Q.** And the TGI (HCT-116 colon)?
**A.** 19.8 µM

**Q.** What about the TGI (KM12 colon) of the same molecule?
**A.** 24.2 µM

**Q.** And the TGI (SK-OV-3 ovarian)?
**A.** 29.3 µM

**Q.** And the TGI (HCC-2998 colon)?
**A.** 18 µM

**Q.** What about the TGI (UO-31 renal) of the same molecule?
**A.** 24.8 µM

**Q.** What about the TGI (SN12C renal) of the same molecule?
**A.** 24.8 µM

**Q.** And the TGI (COLO 205 colon)?
**A.** 4.36 µM

**Q.** And the TGI (MOLT-4 leukemia)?
**A.** 25.3 µM

**Q.** And the TGI (MDA-MB-231 breast)?
**A.** 21 µM

**Q.** What about the TGI (UACC-257 melanoma) of the same molecule?
**A.** 20.8 µM

**Q.** What about the TGI (MDA-N) of the same molecule?
**A.** 25.9 µM

**Q.** And the TGI (SK-MEL-2 melanoma)?
**A.** 22.9 µM

**Q.** And the TGI (SF-295 CNS)?
**A.** 26.9 µM

**Q.** And the TGI (HT29 colon)?
**A.** 14.8 µM

**Q.** And the TGI (SK-MEL-28 melanoma)?
**A.** 28.2 µM

**Q.** And the TGI (MCF7 breast)?
**A.** 25.8 µM

**Q.** And the TGI (OVCAR-8 ovarian)?
**A.** 23.5 µM

**Q.** What about the TGI (U251 CNS) of the same molecule?
**A.** 20.6 µM

**Q.** What about the TGI (OVCAR-5 ovarian) of the same molecule?
**A.** 25.8 µM

**Q.** For `O=c1[nH]nc(-c2ccc3ccccc3c2)[nH]1`, which TGI (HS 578T breast) is on record?
**A.** 24.2 µM

**Q.** What about the TGI (RXF 393 renal) of the same molecule?
**A.** > 100 µM

**Q.** And the TGI (A549 NSCLC)?
**A.** > 100 µM

**Q.** What about the TGI (SNB-75 CNS) of the same molecule?
**A.** > 100 µM

**Q.** What about the TGI (M14 melanoma) of the same molecule?
**A.** > 100 µM

**Q.** What about the TGI (LOX IMVI melanoma) of the same molecule?
**A.** > 100 µM

**Q.** And the TGI (NCI-H522 lung)?
**A.** > 100 µM

**Q.** What about the TGI (MALME-3M melanoma) of the same molecule?
**A.** > 100 µM

**Q.** And the TGI (IGROV1 ovarian)?
**A.** > 100 µM

**Q.** What about the TGI (HL-60(TB) leukemia) of the same molecule?
**A.** > 100 µM

**Q.** And the TGI (NCI/ADR-RES ovarian)?
**A.** > 100 µM

**Q.** And the TGI (A498 renal)?
**A.** > 100 µM

**Q.** And the TGI (CCRF-CEM leukemia)?
**A.** > 100 µM

**Q.** And the TGI (ACHN renal)?
**A.** > 100 µM

**Q.** And the TGI (K-562 leukemia)?
**A.** > 100 µM

**Q.** And the TGI (NCI-H226 lung)?
**A.** > 100 µM

**Q.** What about the TGI (NCI-H460 lung) of the same molecule?
**A.** > 100 µM

**Q.** What about the TGI (T-47D breast) of the same molecule?
**A.** > 100 µM

**Q.** What about the TGI (SR leukemia) of the same molecule?
**A.** > 100 µM

**Q.** And the TGI (CAKI-1 renal)?
**A.** > 100 µM

**Q.** What about the TGI (EKVX NSCLC) of the same molecule?
**A.** 64.4 µM

**Q.** What about the TGI (OVCAR-3 ovarian) of the same molecule?
**A.** > 100 µM

**Q.** What about the TGI (OVCAR-4 ovarian) of the same molecule?
**A.** > 100 µM

**Q.** And the TGI (786-0 renal)?
**A.** > 100 µM

**Q.** And the TGI (HOP-62 NSCLC)?
**A.** > 100 µM

**Q.** What about the TGI (DU-145 prostate) of the same molecule?
**A.** > 100 µM

**Q.** And the TGI (SW-620 colon)?
**A.** > 100 µM

**Q.** And the TGI (SF-539 CNS)?
**A.** > 100 µM

**Q.** And the TGI (TK-10 renal)?
**A.** > 100 µM

**Q.** What about the TGI (RPMI-8226 leukemia) of the same molecule?
**A.** > 100 µM

**Q.** And the TGI (SNB-19 CNS)?
**A.** > 100 µM

**Q.** What about the TGI (NCI-H23 lung) of the same molecule?
**A.** > 100 µM

**Q.** What about the TGI (HCT-15 colon) of the same molecule?
**A.** > 100 µM

**Q.** And the TGI (MDA-MB-435)?
**A.** > 100 µM

**Q.** What about the TGI (BT-549 breast) of the same molecule?
**A.** > 100 µM

**Q.** What about the TGI (PC-3 prostate) of the same molecule?
**A.** > 100 µM

**Q.** What about the TGI (SF-268 CNS) of the same molecule?
**A.** > 100 µM

**Q.** What about the TGI (UACC-62 melanoma) of the same molecule?
**A.** > 100 µM

**Q.** And the TGI (HCT-116 colon)?
**A.** > 100 µM

**Q.** What about the TGI (KM12 colon) of the same molecule?
**A.** > 100 µM

**Q.** And the TGI (HCC-2998 colon)?
**A.** > 100 µM

**Q.** And the TGI (UO-31 renal)?
**A.** > 100 µM

**Q.** What about the TGI (SN12C renal) of the same molecule?
**A.** > 100 µM

**Q.** What about the TGI (COLO 205 colon) of the same molecule?
**A.** > 100 µM

**Q.** And the TGI (MOLT-4 leukemia)?
**A.** > 100 µM

**Q.** And the TGI (UACC-257 melanoma)?
**A.** > 100 µM

**Q.** What about the TGI (MDA-N) of the same molecule?
**A.** > 100 µM

**Q.** And the TGI (SK-MEL-2 melanoma)?
**A.** > 100 µM

**Q.** What about the TGI (SF-295 CNS) of the same molecule?
**A.** > 100 µM

**Q.** And the TGI (HT29 colon)?
**A.** > 100 µM

**Q.** And the TGI (SK-MEL-28 melanoma)?
**A.** > 100 µM

**Q.** And the TGI (MCF7 breast)?
**A.** > 100 µM

**Q.** And the TGI (OVCAR-8 ovarian)?
**A.** > 100 µM

**Q.** And the TGI (U251 CNS)?
**A.** > 100 µM

**Q.** And the TGI (OVCAR-5 ovarian)?
**A.** > 100 µM
